In patent US10548912B2, “Dosage regimen for a tiacumicin compound” (Astellas Pharma Europe Ltd., priority 2015, dated 2020):
Like-named read-outs stand apart in the source and are kept apart here.

Tests used:
[1] = test system: Clostridium difficile (C. diff) toxins A and B; test: Detection of C. difficile toxins A and B in human faecal samples by ELISA (EXTEND samples); format: in vivo
Procedure: The detection of Clostridium difficile (C. diff) toxins A and B in human faecal samples was performed by ELISA. The samples to be analysed originated from clinical study 2819-MA-1002 (EXTEND).
The samples were sent to LGC (Analytical lab in Fordham, Cambridgeshire, UK) packed in dry ice and upon receipt stored in a freezer (nominally −80° C.). For each patient a stool sample was collected at Day 0 (screening) and also in case of disease recurrence or an unscheduled visit. For subjects participating in the Microbiome sub-study stool samples were collected at: Day 0 (screening), Day 5, Day 12, Day 27, Day 40, Day 55 and in the case of disease recurrence or an unscheduled visit. A total of 596 faecal samples were collected during the study.
C. difficile toxins A and B in human faecal samples were detected using TECHLAB C. difficile Tox A/B II ELISA kits (Product Number T5015).
The assay readout is the spectrophotometric dual wavelength optical density (OD) read at 450 nm and referenced at 620 nm and expressed in Absorbance Units (AU). All samples were measured in duplicate. The presence (+) or absence (−) of toxin was reported together with the mean OD.
The acceptability of each batch of test samples was dependent on the data from the QC samples fulfilling the acceptance criteria outlined below in Table 5, in that all positive QCs remain above the cut off value of >0.080 OD and negative QCs remain ≤0.080 OD. All batches contained 2 separate sets of QC samples which were measured in duplicate. The precision was calculated between the OD of replicates of each set using the coefficient of variation (CV) which should be <20%.

[2] = test system: CDI; test: Individual patient data for extended fidaxomicin treatment regimen; format: in vivo, human
Source text: Individual Patient Data for Extended Fidaxomicin Treatment Regimen

[3] = test system: Clostridium difficile infections (CDI); details: cited from earlier work
[4] = Sub-study visit day 5, n = 20 per arm
[5] = Sub-study visit day 12, n = 20 per arm
[6] = Sub-study visit day 27, n = 20 Fidaxomicin, 17 Vancomycin
[7] = FID-CH: 10-day fidaxomicin chaser after repeat CDI treatment, 8 courses, excluding RCDI due to antimicrobial exposure
[8] = FID-TX: 200 mg BID for 10 days, of 3 courses

SMILES: CCc1c(Cl)c(O)c(Cl)c(O)c1C(=O)O[C@H]1[C@H](O)[C@H](OC)[C@H](OC/C2=C\C=C\C[C@H](O)/C(C)=C/[C@H](CC)[C@@H](O[C@@H]3OC(C)(C)[C@@H](OC(=O)C(C)C)[C@H](O)[C@@H]3O)/C(C)=C/C(C)=C/C[C@@H]([C@@H](C)O)OC2=O)O[C@@H]1C [fidaxomicin, 3-[[[6-deoxy-4-O-(3,5-dichloro-2-ethyl-4,6-dihydroxybenzoyl)-2-O-methyl-β-D-mannopyranosyl]oxy]methyl]-12(R)-[[6-deoxy-5-C-methyl-4-O-(2-methyl-1-oxopropyl)-β-D-lyxo-hexopyranosyl]oxy]-11 (S)-ethyl-8(S)-hydroxy-18(S)-(1(R)-hydroxyethyl)-9,13,15-trimethyloxacyclooctadeca-3,5,9,13,15-pentaene-2-one]
- CDI toxin in faecal stool samples, Negative (%) [1, 4]: (75%)
- CDI toxin in faecal stool samples, Negative (number of subjects) [1, 4]: 15
- CDI toxin in faecal stool samples, Positive (%) [1, 4]: (25%)
- CDI toxin in faecal stool samples, Positive (number of subjects) [1, 4]: 5
- CDI toxin in faecal stool samples, Negative (%) [1, 5]: (95.0%)
- CDI toxin in faecal stool samples, Negative (number of subjects) [1, 5]: 19
- CDI toxin in faecal stool samples, Positive (%) [1, 5]: (5.0%)
- CDI toxin in faecal stool samples, Positive (number of subjects) [1, 5]: 1
- CDI toxin in faecal stool samples, Negative (%) [1, 6]: (95.0%)
- CDI toxin in faecal stool samples, Negative (number of subjects) [1, 6]: 19
- CDI toxin in faecal stool samples, Positive (%) [1, 6]: (5.0%)
- CDI toxin in faecal stool samples, Positive (number of subjects) [1, 6]: 1
- Number of Unformed bowel movements per day ([2]; Patient 1 (ID: 3000510001), Day 1): 4
- Number of Unformed bowel movements per day ([2]; Patient 1 (ID: 3000510001), Day 2): 2
- Number of Unformed bowel movements per day ([2]; Patient 1 (ID: 3000510001), Day 3): 1
- Number of Unformed bowel movements per day ([2]; Patient 1 (ID: 3000510001), Day 4): 0
- Number of Unformed bowel movements per day ([2]; Patient 1 (ID: 3000510001), Day 5): 0
- Number of Unformed bowel movements per day ([2]; Patient 1 (ID: 3000510001), Day 6): 2
- Number of Unformed bowel movements per day ([2]; Patient 1 (ID: 3000510001), Day 7): 0
- Number of Unformed bowel movements per day ([2]; Patient 1 (ID: 3000510001), Day 8): 0
- Number of Unformed bowel movements per day ([2]; Patient 1 (ID: 3000510001), Day 9): 0
- Number of Unformed bowel movements per day ([2]; Patient 1 (ID: 3000510001), Day 10): 0
- Number of Unformed bowel movements per day ([2]; Patient 2 (ID: 3000710001), Day 1): 7
- Number of Unformed bowel movements per day ([2]; Patient 2 (ID: 3000710001), Day 2): 7
- Number of Unformed bowel movements per day ([2]; Patient 2 (ID: 3000710001), Day 3): 2
- Number of Unformed bowel movements per day ([2]; Patient 2 (ID: 3000710001), Day 4): 1
- Number of Unformed bowel movements per day ([2]; Patient 2 (ID: 3000710001), Day 5): 1
- Number of Unformed bowel movements per day ([2]; Patient 2 (ID: 3000710001), Day 6): 2
- Number of Unformed bowel movements per day ([2]; Patient 2 (ID: 3000710001), Day 7): 1
- Number of Unformed bowel movements per day ([2]; Patient 2 (ID: 3000710001), Day 8): 1
- Number of Unformed bowel movements per day ([2]; Patient 2 (ID: 3000710001), Day 9): 1
- Number of Unformed bowel movements per day ([2]; Patient 2 (ID: 3000710001), Day 10): 0
- Number of Unformed bowel movements per day ([2]; Patient 3 (ID: 3400310001), Day 1): 8
- Number of Unformed bowel movements per day ([2]; Patient 3 (ID: 3400310001), Day 2): 0
- Number of Unformed bowel movements per day ([2]; Patient 3 (ID: 3400310001), Day 3): 0
- Number of Unformed bowel movements per day ([2]; Patient 3 (ID: 3400310001), Day 4): 0
- Number of Unformed bowel movements per day ([2]; Patient 3 (ID: 3400310001), Day 5): 0
- Number of Unformed bowel movements per day ([2]; Patient 3 (ID: 3400310001), Day 6): 0
- Number of Unformed bowel movements per day ([2]; Patient 3 (ID: 3400310001), Day 7): 0
- Number of Unformed bowel movements per day ([2]; Patient 3 (ID: 3400310001), Day 8): 0
- Number of Unformed bowel movements per day ([2]; Patient 3 (ID: 3400310001), Day 9): 0
- Number of Unformed bowel movements per day ([2]; Patient 3 (ID: 3400310001), Day 10): 0
- Number of Unformed bowel movements per day ([2]; Patient 4 (ID: 3580210001), Day 1): 9
- Number of Unformed bowel movements per day ([2]; Patient 4 (ID: 3580210001), Day 2): 9
- Number of Unformed bowel movements per day ([2]; Patient 4 (ID: 3580210001), Day 3): 5
- Number of Unformed bowel movements per day ([2]; Patient 4 (ID: 3580210001), Day 4): 3
- Number of Unformed bowel movements per day ([2]; Patient 4 (ID: 3580210001), Day 5): 2
- Number of Unformed bowel movements per day ([2]; Patient 4 (ID: 3580210001), Day 6): 3
- Number of Unformed bowel movements per day ([2]; Patient 4 (ID: 3580210001), Day 7): 3
- Number of Unformed bowel movements per day ([2]; Patient 4 (ID: 3580210001), Day 8): 1
- Number of Unformed bowel movements per day ([2]; Patient 4 (ID: 3580210001), Day 9): 1
- Number of Unformed bowel movements per day ([2]; Patient 4 (ID: 3580210001), Day 10): 2
- Courses resulting in treatment success ([3]; 18 courses of fidaxomicin in 14 patients with RCDI): 18
- RCDI [3, 7]: 2
- RCDI (%) [3, 7]: 25%
- RCDI ([3]; FID-TP: taper 200 mg daily 7 days then 200 mg QOD 7-26 days, 7 courses): no RCDI
- RCDI episodes [3, 8]: 2
- RCDI episodes (%) [3, 8]: 66%
- Average symptom-free interval (SFI) ([3]; following FID-CH): 240 days
- Average symptom-free interval (SFI) ([3]; following FID-TP): 150 days
- Average symptom-free interval (SFI) ([3]; following FID-TX): 73 days
